Values quoted from earlier work in US20100093659A1, “POLYVALENT BIOCONJUGATES” (GLYKOS FINLAND OY, priority 2006, published 2010).

Tested on: Helicobacter pylori
Details: monomeric form

SMILES: CC(=O)N[C@H]1[C@H]([C@H](O)[C@H](O)CO)O[C@@](O[C@H]2[C@@H](O)[C@@H](CO)O[C@@H](O[C@H]3[C@H](O)[C@@H](O)C(O)O[C@@H]3CO)[C@@H]2O)(C(=O)O)C[C@@H]1O (stereo partly shown) [3′-sialyllactose]
- concentrations at which adhesion of Helicobacter pylori to gastrointestinal epithelial cells was inhibited: millimolar
